# Measurements taken from PMC11200585, “Prospects for Prostate Cancer Chemotherapy: Cytotoxic Evaluation and Mechanistic Insights of Quinolinequinones with ADME/PK Profile” (Biomedicines, 2024).
# Assays:
# Assay type in all cases: cell-based, human
# [1] = tested on: NCI-H23; experiment: NCI-60 one-dose screen (non-small cell lung cancer); settings: 10 µM single dose, 48 h
# Protocol: (§1) The obtained quinolinequinones were submitted to NCI, Bethesda, USA, and, as per standard protocol of NCI, all compounds were evaluated for their antiproliferative activity at single-dose assay (10 µM concentration in DMSO) on a panel of 60 cancer cell lines derived from leukemia, non-small-cell lung, colon, CNS, melanoma, ovarian, renal, prostate, and breast, as per protocol. Tested compounds were added to the microtiter culture plates followed by incubation for 48 h at 37 °C. Sulforhodamine B (SRB), a protein-binding dye, is used for endpoint determination. The percent of the growth of the treated cells was determined in comparison to the untreated control cells and the results of each tested compound were reported. Data from one-dose experiments pertain to the percentage growth at 10 μM [16, 17, 18].
# [2] = tested on: NCI-H460; experiment: as above; settings: 10 µM single dose, 48 h
# Protocol: as §1
# [3] = tested on: NCI-H522; experiment: as above; settings: 10 µM single dose, 48 h
# Protocol: as §1
# [4] = tested on: NCI-H226; experiment: as above; settings: 10 µM single dose, 48 h
# Protocol: as §1
# [5] = tested on: A549/ATCC; experiment: as above; settings: 10 µM single dose, 48 h
# Protocol: as §1
# [6] = tested on: HOP-62; experiment: as above; settings: 10 µM single dose, 48 h
# Protocol: as §1
# [7] = tested on: HOP-92; experiment: as above; settings: 10 µM single dose, 48 h
# Protocol: as §1
# [8] = tested on: EKVX; experiment: as above; settings: 10 µM single dose, 48 h
# Protocol: as §1
# [9] = tested on: NCI-H322M; experiment: as above; settings: 10 µM single dose, 48 h
# Protocol: as §1
# [10] = tested on: CCRF-CEM; experiment: NCI-60 one-dose screen (leukemia); settings: 10 µM single dose
# Protocol: as §1
# [11] = tested on: HL-60(TB); experiment: NCI-60 one-dose screen (leukemia); settings: 10 µM single dose
# Protocol: as §1
# [12] = tested on: MOLT-4; experiment: NCI-60 one-dose screen (leukemia); settings: 10 µM single dose, 48 h
# Protocol: as §1
# [13] = tested on: RPMI-8226; experiment: NCI-60 one-dose screen (leukemia); settings: 10 µM single dose, 48 h
# Protocol: as §1
# [14] = tested on: K-562; experiment: NCI-60 one-dose screen (leukemia)
# Protocol: as §1
# [15] = tested on: SR; experiment: NCI-60 one-dose screen (leukemia); settings: 10 µM single dose
# Protocol: as §1
# [16] = tested on: SF-539; experiment: NCI-60 one-dose screen (CNS cancer); settings: 10 µM single dose, 48 h
# Protocol: as §1
# [17] = tested on: SF-295; experiment: NCI-60 one-dose screen (CNS cancer); settings: 10 µM single dose, 48 h
# Protocol: as §1
# [18] = tested on: U251; experiment: NCI-60 one-dose screen (CNS cancer); settings: 10 µM single dose, 48 h
# Protocol: as §1
# [19] = tested on: SF-268; experiment: NCI-60 one-dose screen (CNS cancer); settings: 10 µM single dose, 48 h
# Protocol: as §1
# [20] = tested on: SNB-19; experiment: NCI-60 one-dose screen (CNS cancer); settings: 10 µM single dose, 48 h
# Protocol: as §1
# [21] = tested on: SNB-75; experiment: NCI-60 one-dose screen (CNS cancer); settings: 10 µM single dose, 48 h
# Protocol: as §1
# [22] = tested on: IGROV1; experiment: NCI-60 one-dose screen (ovarian cancer)
# Protocol: as §1
# [23] = tested on: OVCAR-4; experiment: NCI-60 one-dose screen (ovarian cancer); settings: 10 µM single dose, 48 h
# Protocol: as §1
# [24] = tested on: NCI/ADR-RES; experiment: NCI-60 one-dose screen (ovarian cancer); settings: 10 µM single dose, 48 h
# Protocol: as §1
# [25] = tested on: OVCAR-5; experiment: NCI-60 one-dose screen (ovarian cancer); settings: 10 µM single dose, 48 h
# Protocol: as §1
# [26] = tested on: OVCAR-3; experiment: NCI-60 one-dose screen (ovarian cancer); settings: 10 µM single dose
# Protocol: as §1
# [27] = tested on: SK-OV-3; experiment: NCI-60 one-dose screen (ovarian cancer); settings: 10 µM single dose, 48 h
# Protocol: as §1
# [28] = tested on: OVCAR-8; experiment: NCI-60 one-dose screen (ovarian cancer); settings: 10 µM single dose, 48 h
# Protocol: as §1
# [29] = tested on: HS 578T; experiment: NCI-60 one-dose screen (breast cancer); settings: 10 µM single dose, 48 h
# Protocol: as §1
# [30] = tested on: MDA-MB-231/ATCC; experiment: NCI-60 one-dose screen (breast cancer); settings: 10 µM single dose, 48 h
# Protocol: as §1
# [31] = tested on: MCF7; experiment: NCI-60 one-dose screen (breast cancer); settings: 10 µM single dose, 48 h
# Protocol: as §1
# [32] = tested on: BT-549; experiment: NCI-60 one-dose screen (breast cancer); settings: 10 µM single dose, 48 h
# Protocol: as §1
# [33] = tested on: MDA-MB-468; experiment: NCI-60 one-dose screen (breast cancer); settings: 10 µM single dose, 48 h
# Protocol: as §1
# [34] = tested on: T-47D; experiment: NCI-60 one-dose screen (breast cancer); settings: 10 µM single dose
# Protocol: as §1
# [35] = tested on: ACHN; experiment: NCI-60 one-dose screen (renal cancer); settings: 10 µM single dose, 48 h
# Protocol: as §1
# [36] = tested on: TK-10; experiment: NCI-60 one-dose screen (renal cancer); settings: 10 µM single dose, 48 h
# Protocol: as §1
# [37] = tested on: A498; experiment: NCI-60 one-dose screen (renal cancer); settings: 10 µM single dose, 48 h
# Protocol: as §1
# [38] = tested on: SN12C; experiment: NCI-60 one-dose screen (renal cancer); settings: 10 µM single dose, 48 h
# Protocol: as §1
# [39] = tested on: UO-31; experiment: NCI-60 one-dose screen (renal cancer); settings: 10 µM single dose, 48 h
# Protocol: as §1
# [40] = tested on: 786-0; experiment: NCI-60 one-dose screen (renal cancer); settings: 10 µM single dose, 48 h
# Protocol: as §1
# [41] = tested on: MALME-3M; experiment: NCI-60 one-dose screen (melanoma); settings: 10 µM single dose, 48 h
# Protocol: as §1
# [42] = tested on: UACC-62; experiment: NCI-60 one-dose screen (melanoma); settings: 10 µM single dose, 48 h
# Protocol: as §1
# [43] = tested on: LOX IMVI; experiment: NCI-60 one-dose screen (melanoma); settings: 10 µM single dose, 48 h
# Protocol: as §1
# [44] = tested on: MDA-MB-435; experiment: NCI-60 one-dose screen (melanoma); settings: 10 µM single dose, 48 h
# Protocol: as §1
# [45] = tested on: UACC-257; experiment: NCI-60 one-dose screen (melanoma); settings: 10 µM single dose, 48 h
# Protocol: as §1
# [46] = tested on: SK-MEL-28; experiment: NCI-60 one-dose screen (melanoma); settings: 10 µM single dose, 48 h
# Protocol: as §1
# [47] = tested on: SK-MEL-2; experiment: NCI-60 one-dose screen (melanoma); settings: 10 µM single dose, 48 h
# Protocol: as §1
# [48] = tested on: SK-MEL-5; experiment: NCI-60 one-dose screen (melanoma); settings: 10 µM single dose, 48 h
# Protocol: as §1
# [49] = tested on: SW-620; experiment: NCI-60 one-dose screen (colon cancer); settings: 10 µM single dose, 48 h
# Protocol: as §1
# [50] = tested on: HCT-15; experiment: NCI-60 one-dose screen (colon cancer); settings: 10 µM single dose, 48 h
# Protocol: as §1
# [51] = tested on: HCC-2998; experiment: NCI-60 one-dose screen (colon cancer); settings: 10 µM single dose, 48 h
# Protocol: as §1
# [52] = tested on: HT29; experiment: NCI-60 one-dose screen (colon cancer); settings: 10 µM single dose, 48 h
# Protocol: as §1
# [53] = tested on: COLO 205; experiment: NCI-60 one-dose screen (colon cancer); settings: 10 µM single dose, 48 h
# Protocol: as §1
# [54] = tested on: HCT-116; experiment: NCI-60 one-dose screen (colon cancer); settings: 10 µM single dose, 48 h
# Protocol: as §1
# [55] = tested on: KM12; experiment: NCI-60 one-dose screen (colon cancer); settings: 10 µM single dose, 48 h
# Protocol: as §1
# [56] = tested on: DU-145; experiment: NCI-60 one-dose screen (prostate cancer); settings: 10 µM single dose, 48 h
# Protocol: as §1
# [57] = tested on: PC-3; experiment: NCI-60 one-dose screen (prostate cancer); settings: 10 µM single dose, 48 h
# Protocol: as §1
compound,measurement,setting,value
COc1ccc(NC2=C(Cl)C(=O)c3nc(C)ccc3C2=O)cc1OC [AQQ4],GP (growth percentage),[1],59.03%
same,GP (growth percentage),[2],100.46%
same,GP (growth percentage),[3],78.84%
same,GP (growth percentage),[4],97.11%
same,GP (growth percentage),[5],107.06%
same,GP (growth percentage),[6],110.03%
same,GP (growth percentage),[7],112.07%
same,GP (growth percentage),[8],50.81%
same,GP (growth percentage),[9],99.05%
same,GP (growth percentage),[10]; 48 h,15.29%
same,inhibition at 10 µM,[10]; Homo sapiens,84.7%
same,GP (growth percentage),[11]; 48 h,9.95%
same,inhibition at 10 µM,[11]; Homo sapiens,90%
same,GP (growth percentage),[12],69.83%
same,GP (growth percentage),[13],47.33%
same,GP (growth percentage),"[14]; 10 µM single dose, 48 h",7.18%
same,inhibition at 10 µM,"[14]; Homo sapiens, K562, 10 µM single dose",92.8%
same,GP (growth percentage),[15]; 48 h,0.92%
same,inhibition at 10 µM,[15]; Homo sapiens,99.1%
same,GP (growth percentage),[16],103.46%
same,GP (growth percentage),[17],103.62%
same,GP (growth percentage),[18],105.80%
same,GP (growth percentage),[19],84.69%
same,GP (growth percentage),[20],94.62%
same,GP (growth percentage),[21],110.92%
same,GP (growth percentage),"[22]; 10 µM single dose, 48 h",19.63%
same,inhibition at 10 µM,"[22]; Homo sapiens, IGROV-1, 10 µM single dose",80.4%
same,GP (growth percentage),[23],71.38%
same,GP (growth percentage),[24],94.66%
same,GP (growth percentage),[25],104.66%
same,GP (growth percentage),[26]; 48 h,13.16%
same,inhibition at 10 µM,[26]; Homo sapiens,86.8%
same,GP (growth percentage),[27],91.82%
same,GP (growth percentage),[28],92.63%
same,GP (growth percentage),[29],118.57%
same,GP (growth percentage),[30],72.96%
same,GP (growth percentage),[31],59.00%
same,GP (growth percentage),[32],126.22%
same,GP (growth percentage),[33],58.11%
same,GP (growth percentage),[34]; 48 h,14.93%
same,inhibition at 10 µM,"[34]; Homo sapiens, T47D",85.1%
same,GP (growth percentage),[35],95.00%
same,GP (growth percentage),[36],148.82%
same,GP (growth percentage),[37],82.55%
same,GP (growth percentage),[38],90.46%
same,GP (growth percentage),[39],100.30%
same,GP (growth percentage),[40],98.99%
same,GP (growth percentage),[41],94.54%
same,GP (growth percentage),[42],71.83%
same,GP (growth percentage),[43],−3.09%
same,GP (growth percentage),[44],−67.16%
same,GP (growth percentage),[45],91.03%
same,GP (growth percentage),[46],101.65%
same,GP (growth percentage),[47],100.13%
same,GP (growth percentage),[48],86.57%
same,GP (growth percentage),[49],72.23%
same,GP (growth percentage),[50],82.29%
same,GP (growth percentage),[51],103.69%
same,GP (growth percentage),[52],109.56%
same,GP (growth percentage),[53],107.70%
same,GP (growth percentage),[54],55.84%
same,GP (growth percentage),[55],98.23%
same,GP (growth percentage),[56],93.00%
same,GP (growth percentage),[57],70.56%
